Test results as given in article PMC7395068, “The evolution of strategies to minimise the risk of human drug-induced liver injury (DILI) in drug discovery and development” (Archives of Toxicology, 2020).
Read-outs that look alike come from different tables or passages of the source.

What was measured:
[1] = Plasma free fraction (fu) and unbound Cmax (Cmax,u); assay type: in vitro ADME, human; details: unbound plasma Cmax
Procedure: The prediction of DILI severity was evaluated further using the 3D combined HCI assays using plasma-free fraction. The majority of fu values were obtained from literature, when unavailable in-house prediction was utilised. Unbound plasma Cmax concentrations (Cmax,u) were derived by multiplying total plasma Cmax with the corresponding free fraction (fu) for each compound.

HepG2 cells [2] = details: cited from earlier work
HepG2 cells [3] = details: cited from earlier work; remark: listed apart in the source
PHH = details: cited from earlier work
hLiMTs [4] = details: cited from earlier work
PHH spheroids = details: cited from earlier work
[5] = system: HepG2 C3A spheroid, BSEP, Glu/Gal in HepG2 cells, bioactivation; details: cited from earlier work
[6] = read-out: Human plasma Cmax; total plasma Cmax.tot, median of 9 literature references; cited from earlier work
[7] = plasma free fraction; cited from earlier work
[8] = cited from earlier work
[9] = system: THLE-Null and THLE-3A4 cells; details: In vitro Assay; ref Gustafsson 2014; cited from earlier work
[10] = system: HepG2 cells, primary human hepatocytes; details: In vitro Assay; ref Garside 2014; cited from earlier work
[11] = system: isolated mouse liver mitochondria; details: In vitro Assay; ref Porceddu 2012; cited from earlier work
rBsep = details: In vitro Assay; ref Dawson 2012; cited from earlier work
hLiMTs [12] = assay: Combined HCI (HCS) and cellular ATP 3D assay in hLiMTs
HepaRG spheroids = assay: Combined HCI (HCS) and cellular ATP 3D assay in HepaRG spheroids
[13] = In vitro Assay, ref Persson 2013
[14] = In vitro Assay, ref Proctor 2017
[15] = Microtissue model structural based (HCI), combined HCS and ATP, MEC < 25 × Cmax.tot cut-off

**Q.** For `C#CCN(C)Cc1ccccc1` [pargyline], which “Human plasma Cmax,u” value [1] is on record?
**A.** 237 nM

**Q.** And the “Structural based (HCI)” value (HepG2 cells [2]; In vitro Assay, ref O'Brien 2006)?
**A.** -VE

**Q.** What about the “DILI in vitro assay prediction, O'Brien (2006)” value (HepG2 cells [2]; Structural based (HCI), HepG2, ref O'Brien et al. 2006) of the same molecule?
**A.** -VE

**Q.** What about the Cluser analysis (HepG2 cells [3]; [13]) of the same molecule?
**A.** -VE

**Q.** And the “Structural based (HCI)” value (HepG2 cells [3]; [13])?
**A.** -VE

**Q.** What about the “DILI in vitro assay prediction, Persson (2013)” value (HepG2 cells [3]; Structural based (HCI), HepG2, ref Persson et al. 2013) of the same molecule?
**A.** -VE

**Q.** And the “PHH/100xCmax, Proctor (2017)” value (PHH; 2D PHH, ATP, IC50 < 100 × Cmax.tot, ref Proctor et al. 2017)?
**A.** -VE

**Q.** And the “PHH/100uM, Proctor (2017)” value (PHH; 2D PHH, ATP, IC50 threshold 100 µM, ref Proctor et al. 2017)?
**A.** -VE

**Q.** What about the “PHH ATP <100uM” value (PHH; [14]) of the same molecule?
**A.** -VE

**Q.** What about the “hLiMTs ATP <100uM” value (hLiMTs [4]; [14]) of the same molecule?
**A.** -VE

**Q.** And the “hLiMTs/100xCmax, Proctor (2017)” value (hLiMTs [4]; hLiMTs, ATP, IC50 < 100 × Cmax.tot, ref Proctor et al. 2017)?
**A.** -VE

**Q.** And the “hLiMTs/100uM, Proctor (2017)” value (hLiMTs [4]; hLiMTs, ATP, IC50 threshold 100 µM, ref Proctor et al. 2017)?
**A.** -VE

**Q.** And the “hLiMTs ATP <20 x Cmax” value (PHH spheroids; In vitro Assay, ref Vorrink 2018)?
**A.** -VE

**Q.** And the “DILI in vitro assay prediction, Vorrink (2018)” value (PHH spheroids; PHH spheroids, ATP, 14 days, IC20 < 20 × Cmax.tot, ref Vorrink et al. 2018)?
**A.** -VE

**Q.** And the “Bayesian Machine Learning DILI prediction, Williams (2019)” value ([5]; Bayesian modeling, ref Williams et al. 2019)?
**A.** -VE

**Q.** And the “Bayesian Machine Learning” value ([5]; In vitro Assay, ref Williams 2019)?
**A.** -VE

**Q.** What about the Cmax [6] of the same molecule?
**A.** 819 nM

**Q.** And the fu [7]?
**A.** 0.290

**Q.** What about the “Assigned DILI category” value ([8]; Chen et al. 2016 or literature alignment, ref Chen et al. 2016) of the same molecule?
**A.** 1

**Q.** What about the “In vivo DILI” value ([8]; ref Dawson 2012) of the same molecule?
**A.** -VE

**Q.** And the “In vivo DILI” value ([8]; ref Garside 2014)?
**A.** -VE

**Q.** And the “In vivo DILI” value ([8]; ref Gustafsson 2014)?
**A.** -VE

**Q.** And the “In vivo DILI” value ([8]; ref O'Brien 2006)?
**A.** -VE

**Q.** And the “In vivo DILI” value ([8]; ref Persson 2013)?
**A.** -VE

**Q.** And the “In vivo DILI” value ([8]; ref Porceddu 2012)?
**A.** -VE

**Q.** And the “In vivo DILI” value ([8]; ref Proctor 2017)?
**A.** -VE

**Q.** And the “In vivo DILI” value ([8]; ref Vorrink 2018)?
**A.** -VE

**Q.** And the “In vivo DILI” value ([8]; ref Williams 2019)?
**A.** -VE

**Q.** And the THLE-Null [9]?
**A.** -VE

**Q.** What about the THLE-Null/3A4 [9] of the same molecule?
**A.** -VE

**Q.** And the “Cluster 1-6 +VE Assay” value [10]?
**A.** +VE

**Q.** And the “in vitro data EC2<=1x Cmax” value [11]?
**A.** -VE

**Q.** And the “in vitro data EC20<=2uM” value [11]?
**A.** -VE

**Q.** And the “Inhibition of rBsep cutoff<1& cmax u>.2” value (rBsep)?
**A.** -VE

**Q.** And the “Inhibition of rBsep cutoff<3” value (rBsep)?
**A.** -VE

**Q.** What about the “DILI prediction hLiMTs (HCS-MEC)” value (hLiMTs [12]; [15]) of the same molecule?
**A.** -VE

**Q.** And the “hLiMTs <25x Avg Cmax ATP” value (hLiMTs [12]; hLiMTs, ATP endpoint, cut-off <25x Avg Cmax)?
**A.** -ve

**Q.** And the “hLiMTs <100x Avg Cmaxu ATP” value (hLiMTs [12]; hLiMTs, ATP endpoint, cut-off <100x Avg Cmaxu)?
**A.** -ve

**Q.** And the “hLiMTs <25x Avg Cmax HCS” value (hLiMTs [12]; hLiMTs, HCS endpoints, cut-off <25x Avg Cmax)?
**A.** -ve

**Q.** What about the “hLiMTs <100x Avg Cmaxu HCS” value (hLiMTs [12]; hLiMTs, HCS endpoints, cut-off <100x Avg Cmaxu) of the same molecule?
**A.** -ve

**Q.** And the “hLiMTs <25x Avg Cmax All” value (hLiMTs [12]; hLiMTs, all endpoints (ATP and HCS), cut-off <25x Avg Cmax)?
**A.** -ve

**Q.** What about the “hLiMTs Cmax max All” value (hLiMTs [12]; hLiMTs, all endpoints, Cmax max used) of the same molecule?
**A.** -ve

**Q.** And the “hLiMTs Cmax min All” value (hLiMTs [12]; hLiMTs, all endpoints, Cmax min used)?
**A.** -ve

**Q.** What about the “hLiMTs <10 uM All” value (hLiMTs [12]; hLiMTs, all endpoints, cut-off <10 uM) of the same molecule?
**A.** -ve

**Q.** And the “hLiMTs <100x Avg Cmaxu All” value (hLiMTs [12]; hLiMTs, all endpoints, cut-off <100x Avg Cmaxu)?
**A.** -ve

**Q.** And the “HepaRG <25x Avg Cmax ATP” value (HepaRG spheroids; HepaRG, ATP endpoint, cut-off <25x Avg Cmax)?
**A.** -ve

**Q.** And the “HepaRG <100x Avg Cmaxu ATP” value (HepaRG spheroids; HepaRG, ATP endpoint, cut-off <100x Avg Cmaxu)?
**A.** -ve

**Q.** And the “HepaRG <25x Avg Cmax HCS” value (HepaRG spheroids; HepaRG, HCS endpoints, cut-off <25x Avg Cmax)?
**A.** -ve

**Q.** And the “HepaRG <100x Avg Cmaxu HCS” value (HepaRG spheroids; HepaRG, HCS endpoints, cut-off <100x Avg Cmaxu)?
**A.** -ve

**Q.** What about the “HepaRG <25x Avg Cmax All” value (HepaRG spheroids; HepaRG, all endpoints (ATP and HCS), cut-off <25x Avg Cmax) of the same molecule?
**A.** -ve

**Q.** And the “HepaRG Cmax max All” value (HepaRG spheroids; HepaRG, all endpoints, Cmax max used)?
**A.** -ve

**Q.** And the “HepaRG Cmax min All” value (HepaRG spheroids; HepaRG, all endpoints, Cmax min used)?
**A.** -ve

**Q.** What about the “HepaRG <10 uM All” value (HepaRG spheroids; HepaRG, all endpoints, cut-off <10 uM) of the same molecule?
**A.** -ve

**Q.** What about the “HepaRG <100x Avg Cmaxu All” value (HepaRG spheroids; HepaRG, all endpoints, cut-off <100x Avg Cmaxu) of the same molecule?
**A.** -ve

**Q.** What about the “DILI prediction HepaRG spheroids (HCS-MEC)” value (HepaRG spheroids; [15]) of the same molecule?
**A.** -VE
